This note sets out measurements from patent US11858905B1, “Cathepsin L inhibitors” (priority 2023, dated 2024).

One test concerns the target human CatL (Homo sapiens (Human), UniProt P07711). Put plainly: Human Cathepsin L (CatL) enzymatic assay. The class given is biochemical. As for the experimental part:
Human Cathepsin L (CatL) Enzymatic Assay
60 μL of the compounds were added to 384-well dilution plate. The compound solution was diluted for 1:3 in succession in DMSO for each column for 10 pts. 0.05 μL diluted compound solution was added in each row to 384 assay plates (Corning 4514) using Echo (LABCYTE 655), each column containing 2 replicates. 5 μL working solution of human CatL enzyme (Abcam #ab81780) was added to 384-well assay plate, centrifuge 1000 rpm for 1 min. The mixture was incubated at […] for 15 min, then add 5 μL working solution of CatL substrate (Genscript #C7360HB140_5) to initiate the reaction (CatL: 0.05 nM, Substrate: 500 nM). Incubate at […] for 30 min. Reading Ex370 nm and Em460 nm fluorescence signals with BMG CLARIO Star Plusaucu. Percent inhibition for each compound was calculated and IC50 (half maximal inhibitory concentration) was fitted from non-linear regression by XLfit 5.5.0.

The test system of the next test is SARS-CoV-2 PsVs. As to the kind of experiment: microbe, parasite or virus in culture. The test is classed as cell-based. The settings on record: Severe acute respiratory syndrome coronavirus 2, Vero C1008, 24 h; for activity at 0.5 µM: read-out: % Infection rate at 500 nM; for activity at 5 µM: read-out: % Infection rate at 5 uM.
The mark [1] stands for this setting: CatL 0.05 nM, substrate 500 nM, pH 5.5, read-out: Enzymatic inhibition IC50.
Setting [2] is: summary of Table 2, read-out: IC50 for inhibiting CatL.

Each structure is given as a SMILES string. Where two headings read alike, the source gives them in different places. A value given as a limit tells only on which side of the number the result lay.

Sequence of human CatL (P07711 whole entry, looked up): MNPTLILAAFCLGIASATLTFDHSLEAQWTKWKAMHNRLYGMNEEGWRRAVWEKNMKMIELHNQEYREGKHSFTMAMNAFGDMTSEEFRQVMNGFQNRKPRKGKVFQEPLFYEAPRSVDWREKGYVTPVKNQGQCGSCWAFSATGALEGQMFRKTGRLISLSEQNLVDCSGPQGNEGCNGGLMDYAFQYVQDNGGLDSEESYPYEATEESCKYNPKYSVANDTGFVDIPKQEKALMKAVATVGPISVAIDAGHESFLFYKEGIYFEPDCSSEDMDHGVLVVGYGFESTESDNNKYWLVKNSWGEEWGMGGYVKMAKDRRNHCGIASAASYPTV

`CC1(c2cc(C(=O)N[C@@H](Cc3nc4ccc(-c5ccnc(C6CC6)c5)cc4o3)C(=O)NC3(C#N)CC3)n(C3CC3)n2)CC1` [Compound 48, (S)—N-(1-((1-cyanocyclopropyl)amino)-3-(6-(2-cyclopropylpyridin-4-yl)benzo[d]oxazol-2-yl)-1-oxopropan-2-yl)-1-cyclopropyl-3-(1-methylcyclopropyl)-1H-pyrazole-5-carboxamide]: the IC50 – broadly, the midpoint of a concentration-inhibition curve – on human CatL (setting [1]) was 3.5 nM. Further, in the test on SARS-CoV-2 PsVs, the activity at 0.5 µM stood at 63% and the activity at 5 µM was 22.4%.
With `N#CC1(NC(=O)[C@H](Cc2nc3cc(Cl)ccc3o2)NC(=O)c2cccc(Cl)c2)CC1` [Compound 8, (S)-3-chloro-N-(3-(5-chlorobenzo[d]oxazol-2-yl)-1-((1-cyanocyclopropyl)amino)-1-oxopropan-2-yl)benzamide], the IC50 at human CatL (setting [1]) is 17.4 nM. Further, in the test on SARS-CoV-2 PsVs, the activity at 0.5 µM came to 92% and the activity at 5 µM came out at 69%.
Turning to `N#CC1(NC(=O)[C@H](Cc2nc3ccccc3o2)NC(=O)c2cccc(Cl)c2)CC1` [Compound 1, (S)—N-(3-(benzo[d]oxazol-2-yl)-1-((1-cyanocyclopropyl)amino)-1-oxopropan-2-yl)-3-chlorobenzamide], the half-maximal inhibitory concentration (IC50) at human CatL (setting [1]) was determined as 14.1 nM. In addition, in the test with SARS-CoV-2 PsVs, the activity at 0.5 µM came to 69% and the activity at 5 µM is 39%.
The corresponding values for `N#CC1(NC(=O)[C@H](Cc2nc3c(-c4cn[nH]c4)cccc3o2)NC(=O)c2cccc(Cl)c2)CC1` [Compound 23, (S)—N-(3-(4-(1H-pyrazol-4-yl)benzo[d]oxazol-2-yl)-1-((1-cyanocyclopropyl)amino)-1-oxopropan-2-yl)-3-chlorobenzamide] are 361 nM, 93% and 98%.
For `CCNc1ccc(-c2ccc3nc(C[C@H](NC(=O)c4cc(C5(C)CC5)nn4C4CC4)C(=O)NC4(C#N)CC4)oc3c2)cn1` [Compound 43, (S)—N-(1-((1-cyanocyclopropyl)amino)-3-(6-(6-(ethylamino)pyridin-3-yl)benzo[d]oxazol-2-yl)-1-oxopropan-2-yl)-1-cyclopropyl-3-(1-methylcyclopropyl)-1H-pyrazole-5-carboxamide], the IC50 on human CatL (setting [1]) amounted to 0.8 nM. Moreover, in the test on SARS-CoV-2 PsVs, the activity at 0.5 µM was found to be 18% and the activity at 5 µM came to 0.8%.
In the case of `N#CC1(NC(=O)[C@H](Cc2nc3ccccc3s2)NC(=O)c2cccc(Cl)c2)CC1` [Compound 31, (S)—N-(3-(benzo[d]thiazol-2-yl)-1-((1-cyanocyclopropyl)amino)-1-oxopropan-2-yl)-3-chlorobenzamide], the IC50 at human CatL (setting [1]) was found to be 11.7 nM. In addition, the 50% inhibitory concentration (IC50) at human CatL (setting [2]) is under 50 nM. Also, in the test with SARS-CoV-2 PsVs, the activity at 0.5 µM worked out at 67% and the activity at 5 µM turned out to be 10%.
In the case of `Cn1nc(C(C)(C)C)cc1C(=O)N[C@@H](Cc1nc2ccccc2o1)C(=O)NC1(C#N)CC1` [Compound 13, (S)—N-(3-(benzo[d]oxazol-2-yl)-1-((1-cyanocyclopropyl)amino)-1-oxopropan-2-yl)-3-(tert-butyl)-1-methyl-1H-pyrazole-5-carboxamide], the IC50 at human CatL (setting [1]) was 3.9 nM. Besides, the IC50 on human CatL (setting [2]) is under 10 nM. In addition, in the test on SARS-CoV-2 PsVs, the activity at 0.5 µM was determined as 55% and the activity at 5 µM is 10%.
Turning to `Cc1ccc(-c2ccc3nc(C[C@H](NC(=O)c4cc(C5(C)CC5)nn4C4CC4)C(=O)NC4(C#N)CC4)oc3c2)cn1` [Compound 42, (S)—N-(1-((1-cyanocyclopropyl)amino)-3-(6-(6-methylpyridin-3-yl)benzo[d]oxazol-2-yl)-1-oxopropan-2-yl)-1-cyclopropyl-3-(1-methylcyclopropyl)-1H-pyrazole-5-carboxamide], at human CatL (setting [1]), the IC50 stood at 4.5 nM. Also, in the test with SARS-CoV-2 PsVs, the activity at 0.5 µM was 34% and the activity at 5 µM stood at 5.6%.
For `N#CC1(NC(=O)[C@H](Cc2nc3cccc(C(F)(F)F)c3o2)NC(=O)c2cccc(Cl)c2)CC1` [Compound 12, (S)-3-chloro-N-(1-((1-cyanocyclopropyl)amino)-1-oxo-3-(7-(trifluoromethyl)benzo[d]oxazol-2-yl)propan-2-yl)benzamide], the IC50 on human CatL (setting [1]) is 235 nM.
Take `N#CC1(NC(=O)[C@H](Cc2nc3cccc(Cl)c3o2)NC(=O)c2cccc(Cl)c2)CC1` [Compound 6, (S)-3-chloro-N-(3-(7-chlorobenzo[d]oxazol-2-yl)-1-((1-cyanocyclopropyl)amino)-1-oxopropan-2-yl)benzamide]: the IC50 on human CatL (setting [1]) stood at 7 nM. For the same compound, at human CatL (setting [2]), the IC50 is under 10 nM. In the test on SARS-CoV-2 PsVs, the activity at 0.5 µM is 75% and the activity at 5 µM stood at 20%.
With `N#CC1(NC(=O)[C@H](Cc2nc3c(Cl)cccc3o2)NC(=O)c2cccc(Cl)c2)CC1` [Compound 7, (S)-3-chloro-N-(3-(4-chlorobenzo[d]oxazol-2-yl)-1-((1-cyanocyclopropyl)amino)-1-oxopropan-2-yl)benzamide], the IC50 on human CatL (setting [1]) was 21.1 nM. Moreover, in the test with SARS-CoV-2 PsVs, the activity at 0.5 µM was 96% and the activity at 5 µM is 48%.
Consider `CC1(c2cc(C(=O)N[C@@H](Cc3nc4ccc(-c5ccnc(C(F)F)c5)cc4o3)C(=O)NC3(C#N)CC3)n(C3CC3)n2)CC1` [Compound 47, (S)—N-(1-((1-cyanocyclopropyl)amino)-3-(6-(2-(difluoromethyl)pyridin-4-yl)benzo[d]oxazol-2-yl)-1-oxopropan-2-yl)-1-cyclopropyl-3-(1-methylcyclopropyl)-1H-pyrazole-5-carboxamide], for which the IC50 at human CatL (setting [1]) was 6.6 nM. In the test with SARS-CoV-2 PsVs, the activity at 0.5 µM is 56% and the activity at 5 µM is 15.9%.
Consider `CN1CC=C(c2ccc3nc(C[C@H](NC(=O)c4cccc(Cl)c4)C(=O)NC4(C#N)CC4)oc3c2)CC1` [Compound 27, (S)-3-chloro-N-(1-((1-cyanocyclopropyl)amino)-3-(6-(1-methyl-1,2,3,6-tetrahydropyridin-4-yl)benzo[d]oxazol-2-yl)-1-oxopropan-2-yl)benzamide], for which the IC50 at human CatL (setting [1]) was 8.5 nM. Further, at human CatL (setting [2]), the IC50 is under 10 nM. In the test on SARS-CoV-2 PsVs, the activity at 0.5 µM was determined as 40% and the activity at 5 µM was found to be 13%.
In the case of `Cn1c(C[C@H](NC(=O)c2cccc(Cl)c2)C(=O)NC2(C#N)CC2)nc2ccccc21` [Compound 32, (S)-3-chloro-N-(1-((1-cyanocyclopropyl)amino)-3-(1-methyl-1 H-benzo[d]imidazol-2-yl)-1-oxopropan-2-yl)benzamide], the half-inhibitory concentration (IC50) on human CatL (setting [1]) was over 1000 nM. In the test on SARS-CoV-2 PsVs, the activity at 0.5 µM stood at 101% and the activity at 5 µM turned out to be 95%.
The corresponding values for `CC(=O)Nc1ccc(-c2ccc3nc(C[C@H](NC(=O)c4cc(C5(C)CC5)nn4C4CC4)C(=O)NC4(C#N)CC4)oc3c2)cn1` [Compound 41, (2S)—N-(1-cyanocyclopropyl)-2-{[2-cyclopropyl-5-(1-methylcyclopropyl)pyrazol-3-yl]formamido}-3-[6-(6-acetamidopyridin-3-yl)-1,3-benzoxazol-2-yl]propanamide] are 5.3 nM, 90% and 57.7%.
With `N#CCNC(=O)[C@H](Cc1nc2ccccc2o1)NC(=O)c1cc(C2CC2)nn1C1CC1` [Compound 15, (S)—N-(3-(benzo[d]oxazol-2-yl)-1-((cyanomethyl)amino)-1-oxopropan-2-yl)-1,3-dicyclopropyl-1H-pyrazole-5-carboxamide], at human CatL (setting [1]), the IC50 was 19.4 nM. For the same compound, the IC50 at human CatL (setting [2]) is under 50 nM. In the test on SARS-CoV-2 PsVs, the activity at 0.5 µM came out at 79% and the activity at 5 µM was 20%.
Turning to `CN1CCN(c2ccc3nc(C[C@H](NC(=O)c4cccc(Cl)c4)C(=O)NC4(C#N)CC4)oc3c2)C(=O)C1` [Compound 30, (S)-3-chloro-N-(1-((1-cyanocyclopropyl)amino)-3-(6-(4-methyl-2-oxopiperazin-1-yl)benzo[d]oxazol-2-yl)-1-oxopropan-2-yl)benzamide], the IC50 at human CatL (setting [1]) is 124 nM. Besides, in the test with SARS-CoV-2 PsVs, the activity at 0.5 µM stood at 99% and the activity at 5 µM was determined as 101%.
The corresponding values for `CC1(c2cc(C(=O)N[C@@H](Cc3nc4ccc(C5=CCN(CC(F)F)CC5)cc4o3)C(=O)NC3(C#N)CC3)n(C3CC3)n2)CC1` [Compound 40, (S)—N-(1-((1-cyanocyclopropyl)amino)-3-(6-(1-(2,2-difluoroethyl)-1,2,3,6-tetrahydropyridin-4-yl)benzo[d]oxazol-2-yl)-1-oxopropan-2-yl)-1-cyclopropyl-3-(1-methylcyclopropyl)-1H-pyrazole-5-carboxamide] are 1.5 nM, 57% and 12%.
For `Cc1nn(C2CC2)cc1C(=O)N[C@@H](Cc1nc2ccccc2o1)C(=O)NC1(C#N)CC1` [Compound 16, (S)—N-(3-(benzo[d]oxazol-2-yl)-1-((1-cyanocyclopropyl)amino)-1-oxopropan-2-yl)-1-cyclopropyl-3-methyl-1H-pyrazole-4-carboxamide], the IC50 at human CatL (setting [1]) turned out to be 139 nM.
The same measure, in the same setting: as for `Cc1nn(C2CC2)cc1C(=O)N[C@@H](Cc1nc2cc(F)c(F)cc2o1)C(=O)NC1(C#N)CC1` [Compound 17, (S)—N-(1-((1-cyanocyclopropyl)amino)-3-(5,6-difluorobenzo[d]oxazol-2-yl)-1-oxopropan-2-yl)-1-cyclopropyl-3-methyl-1H-pyrazole-4-carboxamide], the figure is 201 nM.
